Experimental data published in patent publication US11519859B2, “Rhodol-based thallium sensors for high-throughput screening of potassium channels” (priority 2018, dated 2022).

Experiments:
[1] = Determination of photochemical properties of saponified dyes; assay type: physicochemical; details: after saponification, 150 mM KCl, 10 mM HEPES, 50 μM EDTA, pH = 7.22; for ε (molar absorptivity): at λmax
Protocol: Evaluation of the photochemical properties of the active Thallium sensing species was accomplished by saponifying 10 μL of each pro-dye stock solution by incubating with 90 μL of 0.1 M KOH for 20 min at 37° C. with the exception of 8b which was treated with 1% NH4OH for 1 h at 37° C. The saponified compounds were diluted into 150 mM KCl buffered with 10 mM HEPES, pH=7.22 with 50 μM of EDTA. All photochemical measurements were taken in this buffer. Absorbance and fluorescence emission spectra were recorded on a Molecular Devices Spectromax M5 using polystyrene cuvettes with path length=1 cm at 23° C. Molar absorptivities are reported for λmax. The emission wavelengths monitored for recording excitation spectra, the excitation wavelengths used for recording emission spectra, and the corresponding emission cutoff filters used are listed in Table 2 below, and representative excitation and emission spectra are shown in FIG. 7.
To determine the in vitro photochemical properties of the active Tl^+ sensing species, 8a-m were treated with base to remove the acetoxymethyl esters and aryl acetate and then diluted into 10 mM HEPES buffered 150 mM KCl with 50 μM EDTA at pH=7.22.

[2] = system: HEK-293 cells co-expressing GIRK1 and GIRK2; details: dye loading 1 h, 1 mM Tl^+ stimulus; for on/off (Tl^+ flux assay), maximum fold increase in fluorescence after Tl^+ addition: 10 μM ML297, 2 mM Allura Red AC, n = 6
Protocol: HEK-293 cells co-expressing GIRK1 and GIRK2 were cultured to 80% confluence in a T75 flask (Techno Plastic Products, Trasadingen, CH) at 37° C. and 5% CO2 in medium consisting of Minimal Essential Medium (Cellgro, Manassas, Va.) containing 1× Glutagro (Cellgro, Manassas, Va.) and 10% (v/v) heat-inactivated fetal bovine serum (Life Technologies, Carlsbad, Calif.). The cells were dislodged by treatment with TrypLE (Gibco/Life Technologies, Carlsbad, Calif.), diluted in medium, and plated on clear bottomed, black-walled, amine coated 384 well plates (BD Biosciences, Billerica, Mass.) at a density ˜20,000 cells per well. The plated cells were incubated overnight at 37° C. and 5% CO2 and used for the assay the next day.
Dye loading solutions of Thallos were prepared by dissolving a 25 μg aliquot in 30 μL of 6.7% Pluoronic F-127 (w/v) in DMSO and diluting the resulting solution 1:1000 into assay buffer. Culture medium was removed and replaced with 20 μL of dye loading buffer and incubated in the dark at room temperature for 1 h.
Assay—Assays were conducted on a WaveFront Biosciences Panoptic 1 or 2 (WaveFront Biosciences, Franklin, Tenn.) as indicated. Dye loading solutions were removed and replaced with assay buffer immediately before imaging unless otherwise noted. 10 s following commencement of plate imaging, 20 μL of compound at 2.5× concentration in assay buffer was added and incubated for 120 s at which point 10 μL of Tl^+ at 5× concentration in stimulus buffer (125 mM NaHCO3, 1.8 mM CaSO4, 1 mM MgSO4, 5 mM glucose, 10 mM HEPES, pH 7.4, and T12SO4), and images taken for the following 120 s.
1 mM of T12SO4 (final concentration) was used for stimulus. Assay and stimulus buffers were supplemented with 2 mM of Allura Red AC. […] On/off ratios were calculated by dividing the fluorescence intensity after saturation following Tl^+ addition by the fluorescence intensity immediately after compound addition (n=6).

Row | Structure (SMILES) | λem (fluorescence emission maximum) [1] [nm] | λmax (absorption maximum) [1] [nm] | ε (molar absorptivity) [1] [M⁻¹ cm⁻¹] | on/off (Tl^+ flux assay), maximum fold increase in fluorescence after Tl^+ addition [2] [fold] | fluorescence and response to Tl^+ in cells (in words) [2]
1 | CCCCN(CCCC)c1ccc2c(c1)Oc1cc(OC(C)=O)ccc1C21OC(=O)c2cc(C(=O)Nc3ccc(N(CC(=O)OCOC(C)=O)CC(=O)OCOC(C)=O)c(OC)c3)ccc21 (stereo not drawn) [Compound 8f, bis(acetoxymethyl) 2,2′-((4-(3′-acetoxy-6′-(dibutylamino)-3-oxo-3H-spiro[isobenzofuran-1,9′-xanthen]-5-ylcarboxamido)-2-methoxyphenyl)azanediyl)diacetate] | 556 | 528 | 58000 | 1.52 ± 0.01 | 
2 | COc1cc(NC(=O)c2ccc3c(c2)C(=O)OC32c3ccc(OC(C)=O)cc3Oc3cc(N4CCCCC4)ccc32)ccc1N(CC(=O)OCOC(C)=O)CC(=O)OCOC(C)=O (stereo not drawn) [Compound 8m, bis(acetoxymethyl) 2,2′-((4-(3′-acetoxy-3-oxo-6′-(piperidin-1-yl)-3H-spiro[isobenzofuran-1,9′-xanthen]-5-ylcarboxamido)-2-methoxyphenyl)azanediyl)diacetate] | 557 | 526 | 48000 | 3.09 ± 0.04 | 
3 | COc1cc(NC(=O)c2ccc3c(c2)C(=O)OC32c3ccc(OC(C)=O)cc3Oc3cc(N4CC(F)(F)C4)ccc32)ccc1N(CC(=O)OCOC(C)=O)CC(=O)OCOC(C)=O (stereo not drawn) [Compound 8k, bis(acetoxymethyl) 2,2′-((4-(3′-acetoxy-6′-(3,3-difluoroazetidin-1-yl)-3-oxo-3H-spiro[isobenzofuran-1,9′-xanthen]-5-ylcarboxamido)-2-methoxyphenyl)azanediyl)diacetate] | 530 | 506 | 66000 | 2.02 ± 0.04 | almost half the response to Tl^+
4 | COc1cc(NC(=O)c2ccc3c(c2)C(=O)OC32c3ccc(OC(C)=O)cc3Oc3cc(N4CCC4)ccc32)ccc1N(CC(=O)OCOC(C)=O)CC(=O)OCOC(C)=O (stereo not drawn) [Compound 8j, bis(acetoxymethyl) 2,2′-((4-(3′-acetoxy-6′-(azetidin-1-yl)-3-oxo-3H-spiro[isobenzofuran-1,9′-xanthen]-5-ylcarboxamido)-2-methoxyphenyl)azanediyl)diacetate] | 550 | 522 | 56000 | 3.92 ± 0.13 | 
5 | CCN(CC)c1ccc2c(c1)Oc1cc(OC(C)=O)ccc1C21OC(=O)c2cc(C(=O)Nc3ccc(N(CC(=O)OCOC(C)=O)CC(=O)OCOC(C)=O)c(OC)c3)ccc21 (stereo not drawn) [Compound 8d, bis(acetoxymethyl) 2,2′-((4-(3′-acetoxy-6′-(diethylamino)-3-oxo-3H-spiro[isobenzofuran-1,9′-xanthen]-5-ylcarboxamido)-2-methoxyphenyl)azanediyl)diacetate] | 551 | 525 | 55000 | 3.28 ± 0.04 | 
